Data: patent publication US20230374043A1, “Hexadeca Ammonium-Modified Phthalocyanine and Preparation Method and Use Thereof as Photodynamic Drug” (Fuzhou University, priority 2020, published 2023)
Like-named read-outs stand apart in the source and are kept apart here.

Tests used:
[1] = ultraviolet-visible absorption spectrum of zinc phthalocyanine complexes in water; assay type: physicochemical; settings: for maximum absorption wavelength: in water; for state in water judged from Q band (aggregation / monomer): 4 μM, no surfactant
From the text: It was seen from the figure that the Q bands of the zinc phthalocyanine complexes obtained in Examples 1 to 6 in water each were relatively wide and low, showing different degrees of aggregation; while only the Q bands of the zinc phthalocyanine complexes in Examples 7 and 8 in water were strong and sharp peaks.

[2] = test system: Staphylococcus aureus; assay: dark toxicity and photodynamic antibacterial effect against Staphylococcus aureus (colony count); assay type: cell-based; settings: for increase compared with the IC90 value of MB: under illumination; for IC90: 4 h incubation, red light >610 nm, 15 mW cm^-2, 30 min, read-out: IC90 value (concentration required to kill 90% of Staphylococcus aureus); for photodynamic antibacterial activity: after illumination with red light; for dark toxicity on Staphylococcus aureus: without illumination, 4 h in PBS, colony count
Description: (§1) The dark toxicity and photodynamic antibacterial effect of the 2,3-bis[3-(trimethylammonium)phenoxy]zinc phthalocyanine diiodate of Example 2, the 1,2,3,4-bis[3-(trimethylammonium)phenoxy]zinc phthalocyanine tetraiodate of Example 4, the octa-β-[3-(trimethylammonium)phenoxy]zinc phthalocyanine octaiodate of Example 6, and the hexadeca-[3-(trimethylammonium)phenoxy]zinc phthalocyanine hexadecaiodate of Example 8 against Staphylococcus aureus were tested.
1 mM of the photosensitive medicament was diluted into PBS to prepare a PBS solutions containing zinc phthalocyanine complexes at different concentrations, and then Staphylococcus aureus was cultured in the PBS solutions containing zinc phthalocyanine complexes at different concentrations for 4 h. Illumination experiment group: the cells were irradiated with red light for 30 min at a power of irradiated light at 15 mW cm^−2 using red light with a wavelength greater than 610 nm as an excitation light source; non-illumination control group: the cells were placed in the dark for 30 min. A treated cell suspension was inoculated on a surface of a Luria-Bertani medium, cultured for 48 h, and the dark toxicity and photodynamic activity of the photosensitive medicament to Staphylococcus aureus were examined by the number of colonies.
(§2) The red light with a wavelength greater than 610 nm was provided by a 500 W halogen lamp connected to an insulated water tank and an optical filter greater than 610 nm.

[3] = test system: liver cancer H22; assay: small animal live imaging in tumor-bearing (liver cancer H22) mouse model; assay type: in vivo; settings: tail vein; for time at which tumor fluorescence reached its peak: 0.8 mol·Kg^-1, imaging within 24 h
Description: The 2,3-bis[3-(trimethylammonium)phenoxy]zinc phthalocyanine diiodate of Example 2, the 1,2,3,4-bis[3-(trimethylammonium)phenoxy]zinc phthalocyanine tetraiodate of Example 4, the octa-β-[3-(trimethylammonium)phenoxy]zinc phthalocyanine octaiodate of Example 6, and the hexadeca-[3-(trimethylammonium)phenoxy]zinc phthalocyanine hexadecaiodate of Example 8 each were dissolved in a physiological saline and diluted into solutions to be tested. A tumor-bearing (liver cancer H22) mouse model was established according to a method in the literature (ACS Applied Materials & Interfaces, 2019, 11(40), 36435-36443), 100 μL of each phthalocyanine solution (at an administration dosage: […]) was injected through the tail vein, and small animal live imaging was conducted within the next 24 h.

[4] = test system: human liver cancer cells HepG2; assay: dark toxicity and photodynamic anticancer effect on HepG2 cells (MTT); assay type: cell-based; settings: for photodynamic anticancer activity: HepG2, after illumination with red light; for photodynamic activity relative to tetrakis-α-(2,4,6-tris(N,N,N-trimethylammonium methyl)-phenoxy)zinc phthalocyanine dodecaiodate: HepG2, under illumination; for dark toxicity on HepG2 cells: without illumination, 2 h incubation
Description: as §1, with “anticancer” for “antibacterial”, “2,3-bis[3-(trimethyl ammonium)phenoxy]zinc” for “2,3-bis[3-(trimethylammonium)phenoxy]zinc”, “on human liver cancer cells HepG2” for “against Staphylococcus aureus”, “tested, respectively.” for “tested.”
The main steps were as follows: the above photosensitive medicaments were separately dissolved in water to obtain 1 mM photosensitizers, and then diluted into a cell medium to prepare cell mediums containing zinc phthalocyanine complexes at different concentrations. The human liver cancer cells HepG2 were cultured in the mediums containing zinc phthalocyanine complexes at different concentrations for 2 h; the medium was discarded; and after washing with PBS, the cells were added into a new medium (without zinc phthalocyanine complexes). Illumination experiment group: the cells were irradiated with red light for 30 min at a power of irradiated light at 15 mW cm^−2 using red light with a wavelength greater than 600 nm as an excitation light source; non-illumination control group: the cells were placed in the dark for 30 min. After illumination or non-illumination, the cell viability was examined by MTT.
as §2

[5] = test system: Staphylococcus aureus; settings: comparison value, source not stated, read-out: IC90 value of the commonly used photosensitizer; cited from earlier work
[6] = test system: subcutaneous tumors; assay: photodynamic tumor inhibition in KM mice with subcutaneous tumors; assay type: in vivo
Description: The zinc phthalocyanine complex obtained in Example 8 was dissolved in physiological saline and diluted to form a solution to be tested. […] with subcutaneous tumors were taken, and each drug was divided into 4 groups (a medication+laser group, a medication group, a normal saline group, and a normal saline+laser group), with 5 mice in each group; when the tumor grew to (60-100) mm^3, 100 μL of a phthalocyanine aqueous solution was injected intravenously at a dosage of […]. After 1 h, the mice were anesthetized and irradiated with laser of (685±5) nm (at a light intensity of 9.4 mW cm^−2 for 10 min). The mice were continued to be fed, and observed every other day; a weight of the mice was measured and a long diameter and a short diameter of the mice were measured with a vernier caliper for a total of 14 d.

[7] = test system: Staphylococcus aureus; assay: photodynamic antibacterial effect on mice infected with Staphylococcus aureus; assay type: in vivo; settings: 15 d
Description: A photodynamic antibacterial effect of the hexadeca-[3-(trimethylammonium)phenoxy]zinc phthalocyanine hexadecaiodate of Example 8 was tested on mice infected with Staphylococcus aureus.
0.1 mL of a PBS solution containing Staphylococcus aureus colonies was inoculated subcutaneously on the right abdomen of depilated normal-grade KM female mice (weighed about 20 g), at a cell concentration of (1-2)×10^6 CFU·mL^−1, and the mice could be treated two days after inoculation. 4 groups were set up, namely a hexadeca-[3-(trimethylammonium)phenoxy]zinc phthalocyanine hexadecaiodate+laser group, a hexadeca-[3-(trimethylammonium)phenoxy]zinc phthalocyanine hexadecaiodate group, a blank+laser group, and a blank group. Before treatment, a sterile absorbent pad of a wound dressing was soaked with 100 μL of the phthalocyanine aqueous solution (containing 1% CEL), applied to the wound of the treatment group, and fixed with a zinc oxide tape. The wound dressing was applied for 2 h each time, and then the dressing was changed once, and then continued for another 2 h. The blank group was given normal saline for applying. After 4 h, the illumination group was treated with laser at (685±5) nm (with a light intensity of 9.4 mW·cm^−2 for 5 min). The mice were observed and recorded for 15 d. After 15 d, the tissues at the infected site were excised, ground and extracted with 1 mL of a sterilized PBS to obtain a bacterial suspension, diluted by 50 times, spread on the surface of the corresponding Luria-Bertani medium, with parallelly 3 plates for each concentration, cultured in a 37° C. incubator, and then observed and counted after 24 h.

[8] = Homo sapiens, HepG2, read-out: half maximal inhibitory concentration (IC50)

| Compound | maximum absorption wavelength [1] | state in water judged from Q band (aggregation / monomer) [1] | increase compared with the IC90 value of MB ([2]; Staphylococcus aureus) | IC90 ([2]; Staphylococcus aureus) | photodynamic antibacterial activity [2] | dark toxicity on Staphylococcus aureus [2] | enrichment in organs ([3]; 0.8 mol·Kg^-1) | metabolism in vivo ([3]; 0.8 mol·Kg^-1) | time at which tumor fluorescence reached its peak [3] | photodynamic anticancer activity [4] | photodynamic activity relative to tetrakis-α-(2,4,6-tris(N,N,N-trimethylammonium methyl)-phenoxy)zinc phthalocyanine dodecaiodate [4] | IC50 [4, 8] | dark toxicity on HepG2 cells ([4]; MTT) | accumulation / targeting ability in tumor sites ([3]; 0.8 mol·Kg^-1) | also measured |
| --- | --- | --- | --- | --- | --- | --- | --- | --- | --- | --- | --- | --- | --- | --- | --- |
| 1,2,3,4,8,9,10,11,15,16,17,18,22,23,24,25-hexadeca[3-(dimethylamino)phenoxy]zinc phthalocyanine complex [Example 7] | 727 nm | monomers | – | – | – | – | – | – | – | – | – | – | – | – | – |
| C[N+](C)(C)c1cccc(Oc2cc3c(cc2Oc2cccc([N+](C)(C)C)c2)C2=[N+]4C3=Nc3c5ccccc5c5[n]3[Zn@]43[n]4c(c6ccccc6c4=N2)=NC2=[N+]3C(=N5)c3ccccc32)c1 [Example 2, 2,3-bis[3-(trimethylammonium)phenoxy]zinc phthalocyanine diiodate] | – | – | 69 times | 85 nM | high photodynamic antibacterial activity | no killing and growth inhibitory effect | enriched to varying degrees in organs such as liver and spleen | low metabolism | 12 h | high photodynamic anticancer activity | 1.23 times | 170 nM | no killing and growth inhibitory effect | – | – |
| C[N+](C)(C)c1cccc(Oc2c(Oc3cccc([N+](C)(C)C)c3)c(Oc3cccc([N+](C)(C)C)c3)c3c(c2Oc2cccc([N+](C)(C)C)c2)C2=Nc4c5ccccc5c5[n]4[Zn@]46[n]7c(c8ccccc8c7=NC3=[N+]24)=NC2=[N+]6C(=N5)c3ccccc32)c1 [Example 4] | – | – | 80 times | 74 nM | high photodynamic antibacterial activity | no killing and growth inhibitory effect | – | – | – | high photodynamic anticancer activity | 1.00 times | 210 nM | no killing and growth inhibitory effect | poor accumulation ability in tumor sites | – |
| C[N+](C)(C)c1cccc(Oc2cc3c(cc2Oc2cccc([N+](C)(C)C)c2)C2=[N+]4C3=Nc3c5cc(Oc6cccc([N+](C)(C)C)c6)c(Oc6cccc([N+](C)(C)C)c6)cc5c5[n]3[Zn]43[n]4c(c6cc(Oc7cccc([N+](C)(C)C)c7)c(Oc7cccc([N+](C)(C)C)c7)cc6c4=NC4=[N+]3C(=N5)c3cc(Oc5cccc([N+](C)(C)C)c5)c(Oc5cccc([N+](C)(C)C)c5)cc34)=N2)c1 [Example 6, 2,3,9,10,16,17,23,24-octa[3-(trimethylammonium)phenoxy]zinc phthalocyanine octaiodate] | – | – | 83 times | 71 nM | – | no killing and growth inhibitory effect | enriched to varying degrees in organs such as liver and spleen | low metabolism | about 12 h | – | 1.50 times | 60 nM | no killing and growth inhibitory effect | – | – |
| CN(C)c1ccc2nc3ccc(=[N+](C)C)cc-3sc2c1 [MB] | – | – | – | – | – | – | – | – | – | – | – | – | – | – | IC90 [5]: 5900 nM |
| hexadeca-[3-(dimethylammonium)phenoxy]zinc phthalocyanine hexadecaiodate [Example 8] | 714 nm | monomers | 86 times | – | – | no killing and growth inhibitory effect | – | rapid metabolism in vivo | 2 h | – | 2.25 times | – | no killing and growth inhibitory effect | excellent targeting ability | IC90 [2]: 69 nM; time until basically scavenged by the body's metabolism ([3]; 0.8 mol·Kg^-1): about 6 h; toxicity to mice ([6]; i.v. 0.8 mol·Kg^-1, 14 d): no obvious toxicity; tumor inhibition rate ([6]; medication+laser group, i.v. 0.8 mol·Kg^-1, laser (685±5) nm 9.4 mW cm^-2 10 min after 1 h, 14 d): 98.7%; body weight of the mice in the treatment group ([6]; within 14 d): tendency to increase; appearance of infected skin site ([7]; +laser group): crusted; inhibition rate of Staphylococcus aureus colonies from excised tissue ([7]; +laser group, topical dressing 2x2 h (1% CEL), laser (685±5) nm 9.4 mW·cm^-2 5 min): 98%; appearance of infected skin site ([7]; compound without laser): obvious lumps; IC50 ([4]; HepG2, 2 h incubation, red light >600 nm, 15 mW cm^-2, 30 min, MTT, read-out: half maximal inhibitory concentration (IC50)): 40 nM |
